Assay results from patent publication US20250277734A1, “M-MIC: Microfluidic Microbiologically Influenced Corrosion Model” (The Texas A&M University System, priority 2017, published 2025).

Test system: Shewanella oneidensis biofilms
Assay: Biocide efficacy on S. oneidensis biofilms grown on carbon steel in single-electrode M-MIC (live/dead staining, confocal microscopy)
Assay type: cell-based
Details: for increase in the percentage of dead cells: 400 ppm biocide added to 12 hour biofilm on carbon steel, after 4 hours SYTO9/propidium iodide staining, 30° C.
Protocol: Biofilms of Shewanella oneidensis (e.g., S. oneidensis, an iron-reducing bacterium commonly found in MIC sites) were grown on carbon steel in the single-metal system, such as M-MIC 200 as depicted in FIG. 2. In this Example 2, the single electrode comprised steel, the substrate 112 comprised glass, and the structure 104 comprised PDMS. Biofilms were developed in the system at 30° C. with a constant flow of Luria-Bertani growth medium which contained 10 g/l tryptone, 5 g/l yeast extract and 15 g/l sodium chloride being introduced at a flow rate of 0.25 mL/h. After 12 hours, flow of growth medium was stopped and 400 ppm of two common oilfield biocides, glutaraldehyde and tetrakis-hydroxymethyl-phosphonium sulfate (THPS), were added to the biofilms. After 4 hours, live and dead cells in the biofilms were stained using SYTO9 (green) and propidium iodide (red), respectively. Stained biofilms were analyzed for the percentage of live and dead cells to determine biocide efficiency. […] In addition to determining the right biocide, similar studies can be conducted with different biocide concentrations to also determine the appropriate biocide dosage.

Which “increase in the percentage of dead cells” value does the source give for `O=CCCCC=O` [glutaraldehyde] here?
Its value is 2.1 fold.

For “tetrakis-hydroxymethyl-phosphonium sulfate [THPS]”, which “increase in the percentage of dead cells” value is on record?
The value was 3.1 fold.

And the “relative biocide effectiveness against S. oneidensis biofilms” value (400 ppm, 4 hours, under the conditions tested)?
Its value is “more effective than glutaraldehyde”.
